Data reported in paper PMC8231556, “Inhibiting Endothelial Cell Function in Normal and Tumor Angiogenesis Using BMP Type I Receptor Macrocyclic Kinase Inhibitors” (Cancers, 2021).

Columns and labels:
Experiment in all cases: radiometric kinase profiling (33 PanQinase)
Assay type in all cases: biochemical
GSK3B = target: T1, GSK3B (Homo sapiens, UniProt P49841); conditions: read-out: Inhibitory effect (%) GSK3B
T1 construct: purchased ProQinase (33PanQinase Activity Assay)
Procedure: (§1) The kinase inhibition profile of the compounds was determined by testing 96 protein kinases’ activity using a radiometric protein kinase assay (33 PanQinase® Activity Assay, Proqinase, Germany). In brief, 10 µL of non-radioactive ATP solution (in H2O), 25 µL of assay buffer/[γ-33 P]-ATP mixture, 5 µL of 0.1 μM the tested compound in 10% DMSO and 10 µL of enzyme/substrate were mixed in 96-well FlashPlatesTM (Perkin Elmer, Boston, MA, USA). The reaction was conducted at 30 °C for 60 min. To stop the reaction, 50 µL of 2% (v/v) H3PO4 was added into the protein kinase reaction cocktails. After which, with 200 µL 0.9% (w/v) NaCl twice, the incorporation of ^33 Pi (counting of “cpm”) was determined with a microplate scintillation counter (Wallac Microbeta, Boston, MA, USA). All protein kinase assays were performed using a BeckmanCoulter Biomek 2000/SL robotic system (Brea, CA, USA). The residual activity (in %) for each compound was normalized to 100% enzyme activity (untreated control) and background (negative control).

MAPK14 = target: T2, MAPK14 (Homo sapiens, UniProt Q16539); conditions: read-out: Inhibitory effect (%) MAPK14
T2 construct: purchased ProQinase (33PanQinase Activity Assay)
Procedure: as §1

ACVR1 = target: T3, ACVR1 (Homo sapiens, UniProt Q04771); conditions: read-out: Inhibitory effect (%) ACVR1
T3 construct: purchased Proqinase, Germany
T3 sequence (Q04771 21-509): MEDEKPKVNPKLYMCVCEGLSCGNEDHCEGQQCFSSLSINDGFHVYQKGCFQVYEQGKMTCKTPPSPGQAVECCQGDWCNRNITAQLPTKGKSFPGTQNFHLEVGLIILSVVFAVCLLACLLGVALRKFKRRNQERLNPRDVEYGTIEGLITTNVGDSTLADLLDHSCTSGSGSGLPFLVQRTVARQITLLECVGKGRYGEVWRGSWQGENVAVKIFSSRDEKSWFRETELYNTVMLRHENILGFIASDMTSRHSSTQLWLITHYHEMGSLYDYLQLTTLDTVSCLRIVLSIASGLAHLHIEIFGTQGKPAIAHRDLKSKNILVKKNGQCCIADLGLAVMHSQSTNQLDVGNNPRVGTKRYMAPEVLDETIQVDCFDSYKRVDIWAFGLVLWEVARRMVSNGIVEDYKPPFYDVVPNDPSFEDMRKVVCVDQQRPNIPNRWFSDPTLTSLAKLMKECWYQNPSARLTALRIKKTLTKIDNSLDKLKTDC
Procedure: as §1

MAP2K1 = target: T4, MAP2K1 (Homo sapiens, UniProt Q02750); conditions: read-out: Inhibitory effect (%) MAP2K1
T4 construct: purchased ProQinase (33PanQinase Activity Assay)
Procedure: as §1

JAK1 = target: T5, JAK1 (Homo sapiens, UniProt P23458); conditions: read-out: Inhibitory effect (%) JAK1
T5 construct: purchased ProQinase (33PanQinase Activity Assay)
Procedure: as §1

IRAK4 = target: T6, IRAK4 (Homo sapiens, UniProt Q9NWZ3); conditions: read-out: Inhibitory effect (%) IRAK4
T6 construct: purchased ProQinase (33PanQinase Activity Assay)
T6 sequence (Q9NWZ3 1-460): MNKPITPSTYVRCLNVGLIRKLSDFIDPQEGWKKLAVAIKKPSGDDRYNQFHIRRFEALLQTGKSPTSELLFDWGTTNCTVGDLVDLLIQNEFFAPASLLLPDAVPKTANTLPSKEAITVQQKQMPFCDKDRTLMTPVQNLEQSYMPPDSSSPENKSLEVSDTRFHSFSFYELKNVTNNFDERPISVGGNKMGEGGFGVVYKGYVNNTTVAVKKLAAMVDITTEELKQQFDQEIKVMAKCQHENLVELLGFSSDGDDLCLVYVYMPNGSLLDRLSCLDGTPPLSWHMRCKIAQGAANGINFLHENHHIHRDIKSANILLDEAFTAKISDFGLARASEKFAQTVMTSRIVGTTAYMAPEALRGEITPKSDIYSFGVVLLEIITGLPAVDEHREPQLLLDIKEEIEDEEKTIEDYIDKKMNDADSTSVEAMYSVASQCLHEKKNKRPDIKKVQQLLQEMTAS
Procedure: as §1

DCLK2 = target: T7, DCLK2 (Homo sapiens, UniProt Q8N568); conditions: read-out: Inhibitory effect (%) DCLK2
T7 construct: purchased Proqinase, Germany
T7 sequence (Q8N568 1-766): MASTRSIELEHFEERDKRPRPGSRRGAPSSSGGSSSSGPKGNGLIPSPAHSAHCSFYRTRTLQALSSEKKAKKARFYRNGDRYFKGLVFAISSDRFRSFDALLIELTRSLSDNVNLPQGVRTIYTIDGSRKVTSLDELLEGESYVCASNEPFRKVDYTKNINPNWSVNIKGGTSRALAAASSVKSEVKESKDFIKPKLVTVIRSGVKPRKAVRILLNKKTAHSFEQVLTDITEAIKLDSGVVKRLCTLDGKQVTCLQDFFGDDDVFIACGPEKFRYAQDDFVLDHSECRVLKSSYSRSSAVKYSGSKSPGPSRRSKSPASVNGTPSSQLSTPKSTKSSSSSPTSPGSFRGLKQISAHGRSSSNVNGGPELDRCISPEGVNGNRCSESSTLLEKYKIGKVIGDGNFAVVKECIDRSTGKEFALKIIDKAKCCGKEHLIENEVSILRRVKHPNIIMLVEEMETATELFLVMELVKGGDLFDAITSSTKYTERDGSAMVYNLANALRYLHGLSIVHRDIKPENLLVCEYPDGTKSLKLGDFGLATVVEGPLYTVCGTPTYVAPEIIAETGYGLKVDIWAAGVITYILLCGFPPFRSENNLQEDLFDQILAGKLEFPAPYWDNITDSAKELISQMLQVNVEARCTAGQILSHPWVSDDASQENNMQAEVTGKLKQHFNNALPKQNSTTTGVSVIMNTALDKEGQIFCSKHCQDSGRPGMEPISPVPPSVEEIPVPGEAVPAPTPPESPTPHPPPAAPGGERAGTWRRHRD
Procedure: as §1

NEK6 = target: T8, NEK6 (Homo sapiens, UniProt Q9HC98); conditions: read-out: Inhibitory effect (%) NEK6
T8 construct: purchased ProQinase (33PanQinase Activity Assay)
Procedure: as §1

CSNK1A1 = target: T9, CSNK1A1 (Homo sapiens, UniProt P48729); conditions: read-out: Inhibitory effect (%) CSNK1A1
T9 construct: purchased Proqinase, Germany
Procedure: as §1

T1 sequence (P49841 whole entry): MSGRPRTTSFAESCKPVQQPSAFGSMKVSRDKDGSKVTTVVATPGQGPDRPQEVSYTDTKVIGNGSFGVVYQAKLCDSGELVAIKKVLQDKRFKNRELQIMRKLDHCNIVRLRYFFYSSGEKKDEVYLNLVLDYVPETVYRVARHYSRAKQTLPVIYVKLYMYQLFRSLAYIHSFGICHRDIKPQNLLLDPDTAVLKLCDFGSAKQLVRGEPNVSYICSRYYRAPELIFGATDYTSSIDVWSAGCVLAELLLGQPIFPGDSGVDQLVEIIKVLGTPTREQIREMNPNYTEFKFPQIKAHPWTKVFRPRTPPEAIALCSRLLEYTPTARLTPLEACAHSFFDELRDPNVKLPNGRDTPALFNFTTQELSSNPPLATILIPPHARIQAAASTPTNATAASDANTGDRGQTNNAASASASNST
T4 sequence (Q02750 whole entry): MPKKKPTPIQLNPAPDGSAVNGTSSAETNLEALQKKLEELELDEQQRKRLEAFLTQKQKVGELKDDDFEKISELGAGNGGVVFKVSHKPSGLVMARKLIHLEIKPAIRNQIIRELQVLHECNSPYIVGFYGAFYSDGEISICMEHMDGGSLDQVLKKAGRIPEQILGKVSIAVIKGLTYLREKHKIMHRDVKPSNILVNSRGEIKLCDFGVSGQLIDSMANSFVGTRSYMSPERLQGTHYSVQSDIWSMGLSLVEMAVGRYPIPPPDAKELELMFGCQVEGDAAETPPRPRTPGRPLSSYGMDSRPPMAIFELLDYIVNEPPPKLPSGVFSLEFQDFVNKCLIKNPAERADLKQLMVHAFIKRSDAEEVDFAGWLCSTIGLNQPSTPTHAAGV
T8 sequence (Q9HC98 whole entry): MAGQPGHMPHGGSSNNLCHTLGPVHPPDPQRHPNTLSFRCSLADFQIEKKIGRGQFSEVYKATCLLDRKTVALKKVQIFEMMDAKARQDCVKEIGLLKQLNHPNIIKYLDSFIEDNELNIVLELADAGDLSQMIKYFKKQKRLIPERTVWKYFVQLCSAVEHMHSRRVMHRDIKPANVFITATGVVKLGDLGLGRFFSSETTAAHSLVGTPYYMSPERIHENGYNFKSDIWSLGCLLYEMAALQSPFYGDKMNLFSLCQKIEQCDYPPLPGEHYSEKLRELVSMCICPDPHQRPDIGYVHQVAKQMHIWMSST
T5 sequence (P23458 whole entry): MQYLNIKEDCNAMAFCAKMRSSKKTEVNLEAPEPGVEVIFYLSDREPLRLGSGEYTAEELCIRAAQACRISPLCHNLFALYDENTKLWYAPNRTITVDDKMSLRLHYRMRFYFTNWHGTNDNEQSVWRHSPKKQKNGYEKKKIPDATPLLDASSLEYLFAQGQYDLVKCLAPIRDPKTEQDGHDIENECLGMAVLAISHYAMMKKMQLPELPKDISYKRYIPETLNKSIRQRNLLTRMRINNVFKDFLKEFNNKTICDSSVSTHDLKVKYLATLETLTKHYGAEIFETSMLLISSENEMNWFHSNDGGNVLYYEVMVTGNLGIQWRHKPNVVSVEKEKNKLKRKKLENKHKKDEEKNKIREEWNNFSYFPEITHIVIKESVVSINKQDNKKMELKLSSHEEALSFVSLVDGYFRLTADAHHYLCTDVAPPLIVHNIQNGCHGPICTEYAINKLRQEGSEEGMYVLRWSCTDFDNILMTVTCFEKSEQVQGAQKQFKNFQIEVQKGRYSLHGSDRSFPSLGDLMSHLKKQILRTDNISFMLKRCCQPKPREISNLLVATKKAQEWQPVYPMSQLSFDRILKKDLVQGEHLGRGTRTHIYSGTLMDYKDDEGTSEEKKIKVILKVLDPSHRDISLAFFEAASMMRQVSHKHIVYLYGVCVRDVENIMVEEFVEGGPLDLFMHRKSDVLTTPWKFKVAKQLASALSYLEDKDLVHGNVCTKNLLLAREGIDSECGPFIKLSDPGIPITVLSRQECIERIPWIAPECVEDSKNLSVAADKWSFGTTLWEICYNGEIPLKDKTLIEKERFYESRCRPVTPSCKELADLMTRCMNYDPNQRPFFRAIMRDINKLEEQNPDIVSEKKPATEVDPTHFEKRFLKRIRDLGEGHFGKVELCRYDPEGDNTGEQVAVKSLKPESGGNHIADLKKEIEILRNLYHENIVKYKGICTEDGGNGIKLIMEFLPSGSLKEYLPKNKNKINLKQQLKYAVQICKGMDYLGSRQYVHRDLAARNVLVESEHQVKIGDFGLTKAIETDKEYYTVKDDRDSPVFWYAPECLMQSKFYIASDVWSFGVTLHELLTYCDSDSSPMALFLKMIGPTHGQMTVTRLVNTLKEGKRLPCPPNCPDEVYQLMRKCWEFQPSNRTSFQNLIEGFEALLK
T9 sequence (P48729 whole entry): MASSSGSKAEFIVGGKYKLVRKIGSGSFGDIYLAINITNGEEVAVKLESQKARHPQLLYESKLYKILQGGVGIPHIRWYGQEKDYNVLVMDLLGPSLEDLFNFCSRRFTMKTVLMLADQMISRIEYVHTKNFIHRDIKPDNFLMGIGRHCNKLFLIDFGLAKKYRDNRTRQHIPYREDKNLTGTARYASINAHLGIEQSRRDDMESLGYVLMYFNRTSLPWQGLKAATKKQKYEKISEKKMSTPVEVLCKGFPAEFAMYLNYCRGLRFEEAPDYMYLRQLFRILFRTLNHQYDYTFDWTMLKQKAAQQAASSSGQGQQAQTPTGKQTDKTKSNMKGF
T2 sequence (Q16539 whole entry): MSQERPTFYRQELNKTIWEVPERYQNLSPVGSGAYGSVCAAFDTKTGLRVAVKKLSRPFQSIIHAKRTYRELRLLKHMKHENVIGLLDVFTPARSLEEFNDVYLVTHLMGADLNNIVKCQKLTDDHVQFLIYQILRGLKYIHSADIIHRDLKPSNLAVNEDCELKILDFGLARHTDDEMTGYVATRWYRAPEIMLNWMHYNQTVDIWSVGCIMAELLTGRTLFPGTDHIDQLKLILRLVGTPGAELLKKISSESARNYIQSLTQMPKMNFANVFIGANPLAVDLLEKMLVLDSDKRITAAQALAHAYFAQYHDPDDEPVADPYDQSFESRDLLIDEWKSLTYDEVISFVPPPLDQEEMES

Row | SMILES | inhibition at 0.1 µM (GSK3B) | inhibition at 0.1 µM (MAPK14) | inhibition at 0.1 µM (ACVR1) | inhibition at 0.1 µM (MAP2K1) | inhibition at 0.1 µM (JAK1) | inhibition at 0.1 µM (IRAK4) | inhibition at 0.1 µM (DCLK2) | inhibition at 0.1 µM (NEK6) | inhibition at 0.1 µM (CSNK1A1)
1 | CN1CCC(=O)NCCNc2ccn3ncc(c3n2)-c2cccc(c2)C1 [OD29] | 3.34% | 45.2% | 92.5% | 7.68% | -3.74% | 26.4% | -15.9% | 4.01% | -2.21%
2 | CN1CCc2cccc(c2)Nc2nccc(n2)N2CCCc3cc(ccc32)C1 [OD16] | 1.33% | -3.1% | 90.2% | 5.48% | 23.1% | 4.7% | -2.18% | -21.1% | 0.99%
3 | c1ccc2c(-c3cnn4cc(-c5ccc(N6CCNCC6)cc5)cnc34)ccnc2c1 [LDN-193189, reference compound] | -28.2% | 0.3% | 67.7% | 11.1% | -10.9% | -6.28% | 9.12% | 7.05% | -3.63%
